Like-named read-outs stand apart in the source and are kept apart here.
Experiments:
BrainSpheres = assay: Cytotoxicity evaluation, resazurin assay (BrainSphere.Cyto); assay type: cell-based, human; settings: for AC50: Homo sapiens, 312 h, read-out: ac50 BrainSphere.Cyto; for hitc BrainSphere.Cyto: day 13, tcplfit2; for BMD BrainSphere.Cyto: tcplfit2 BMD at benchmark response (1.349*SD of baseline controls); for hitc BrainSphere.Cyto: key: 1 (active); 0 (inactive)
Method: For the resazurin assay, BrainSpheres were cultured for 7 weeks in non-treated 6-well plates under gyratory shaking. Subsequently, the cells were exposed in the same manner as the HD-MEA plates. This assay was used to determine cell viability after exposure for 13 days to the different compounds. After exposure, resazurin diluted in PBS was added directly to the 6-well plates to a final concentration of 0.1 mg/ml. The plates were then put in an incubator for 3 h at 37 °C, 5% CO2. Then, 100 µl of the media was collected and transferred in a 96-well plate for fluorescence analysis, which was done at ex:530 nm/em:590 nm in a multi-well fluorometric reader CytoFluor series 4000 (PerSeptive Biosystems, Inc).
Ten metrics were measured to evaluate changes in neural activity in the BrainSphere MEA assay (Table 3). Considering the complexity of the data which includes seven recording days for each single ROI in a well, an area under the curve (AUC) metric was used to reduce activity across time as described in previous publications (Brown et al. [2016]; Frank et al. [2017b]; Shafer et al. [2019]). […] For concentration–response modeling, the mean AUC values across all the BrainSpheres per well (technical replicates) was computed for each endpoint, such that each concentration included biological replicates from at least three separate wells on three separate plates, representing each individual experiment. The mean AUC values were used for concentration–response modeling using the R package tcplfit2 (version 0.1.6) (Sheffield et al. [2022]). Data were normalized as a percent of vehicle control wells by plate using the equation: resp.pc=rval-bval/bval×100 where resp.pc is the percent of control value, rval is the response value, and bval is the baseline value (defined as the mean of the vehicle control and the lowest tested concentration). […] The activity cutoff was defined as 3 times the median absolute deviation (bmad) of baseline values. A curve was defined as ‘active’ if the continuous hit call was ≥ 0.9. See Supplemental Table 1 for the bmad, activity cutoff threshold, SD, and benchmark response for each endpoint in the BrainSphere MEA. Potency was defined as the concentration at 50% maximal activity (AC50 log10 µM).

2D rat cortical cultures = settings: cited from earlier work; for AC50: rNFA mc5; for hitc CCTE_Shafer_MEA_dev_active_electrodes_number / hitc CCTE_Shafer_MEA_dev_burst_duration_mean / hitc CCTE_Shafer_MEA_dev_burst_rate / hitc CCTE_Shafer_MEA_dev_bursting_electrodes_number / hitc CCTE_Shafer_MEA_dev_correlation_coefficient_mean / hitc CCTE_Shafer_MEA_dev_firing_rate_mean / hitc CCTE_Shafer_MEA_dev_inter_network_spike_interval_mean / hitc CCTE_Shafer_MEA_dev_interburst_interval_mean / hitc CCTE_Shafer_MEA_dev_mutual_information_norm / hitc CCTE_Shafer_MEA_dev_network_spike_duration_std / hitc CCTE_Shafer_MEA_dev_network_spike_number / hitc CCTE_Shafer_MEA_dev_network_spike_peak / hitc CCTE_Shafer_MEA_dev_per_burst_interspike_interval / hitc CCTE_Shafer_MEA_dev_per_burst_spike_percent / hitc CCTE_Shafer_MEA_dev_per_network_spike_spike_number_mean / hitc CCTE_Shafer_MEA_dev_per_network_spike_spike_percent / hitc CCTE_Shafer_MEA_dev_spike_duration_mean: rNFA mc5 hit call; for hitc CCTE Shafer MEA dev active electrodes number: key: 1 (active); 0 (inactive); for hitc CCTE Shafer MEA dev burst duration mean: key: 1 (active); 0 (inactive); for hitc CCTE Shafer MEA dev burst rate: key: 1 (active); 0 (inactive); for hitc CCTE Shafer MEA dev bursting electrodes number: key: 1 (active); 0 (inactive); for hitc CCTE Shafer MEA dev correlation coefficient mean: key: 1 (active); 0 (inactive); for hitc CCTE Shafer MEA dev firing rate mean: key: 1 (active); 0 (inactive); for hitc CCTE Shafer MEA dev inter network spike interval mean: key: 1 (active); 0 (inactive); for hitc CCTE Shafer MEA dev interburst interval mean: key: 1 (active); 0 (inactive); for hitc CCTE Shafer MEA dev mutual information norm: key: 1 (active); 0 (inactive); for hitc CCTE Shafer MEA dev network spike duration std: key: 1 (active); 0 (inactive); for hitc CCTE Shafer MEA dev network spike number: key: 1 (active); 0 (inactive); for hitc CCTE Shafer MEA dev network spike peak: key: 1 (active); 0 (inactive); for hitc CCTE Shafer MEA dev per burst interspike interval: key: 1 (active); 0 (inactive); for hitc CCTE Shafer MEA dev per burst spike percent: key: 1 (active); 0 (inactive); for hitc CCTE Shafer MEA dev per network spike spike number mean: key: 1 (active); 0 (inactive); for hitc CCTE Shafer MEA dev per network spike spike percent: key: 1 (active); 0 (inactive); for hitc CCTE Shafer MEA dev spike duration mean: key: 1 (active); 0 (inactive)
[1] = aenm active_electrodes_number, read-out: ac50 CCTE_Shafer_MEA_dev_active_electrodes_number
[2] = aenm burst_duration_mean, read-out: ac50 CCTE_Shafer_MEA_dev_burst_duration_mean
[3] = aenm burst_rate, read-out: ac50 CCTE_Shafer_MEA_dev_burst_rate
[4] = aenm bursting_electrodes_number, read-out: ac50 CCTE_Shafer_MEA_dev_bursting_electrodes_number
[5] = aenm correlation_coefficient_mean, read-out: ac50 CCTE_Shafer_MEA_dev_correlation_coefficient_mean
[6] = aenm firing_rate_mean, read-out: ac50 CCTE_Shafer_MEA_dev_firing_rate_mean
[7] = aenm mutual_information_norm, read-out: ac50 CCTE_Shafer_MEA_dev_mutual_information_norm
[8] = aenm network_spike_duration_std, read-out: ac50 CCTE_Shafer_MEA_dev_network_spike_duration_std
[9] = aenm network_spike_number, read-out: ac50 CCTE_Shafer_MEA_dev_network_spike_number
[10] = aenm network_spike_peak, read-out: ac50 CCTE_Shafer_MEA_dev_network_spike_peak
[11] = aenm per_burst_interspike_interval, read-out: ac50 CCTE_Shafer_MEA_dev_per_burst_interspike_interval
[12] = aenm per_burst_spike_percent, read-out: ac50 CCTE_Shafer_MEA_dev_per_burst_spike_percent
[13] = aenm per_network_spike_spike_number_mean, read-out: ac50 CCTE_Shafer_MEA_dev_per_network_spike_spike_number_mean
[14] = aenm per_network_spike_spike_percent, read-out: ac50 CCTE_Shafer_MEA_dev_per_network_spike_spike_percent
[15] = aenm spike_duration_mean, read-out: ac50 CCTE_Shafer_MEA_dev_spike_duration_mean
[16] = aenm bursting_electrodes_number
[17] = aenm correlation_coefficient_mean
[18] = aenm inter_network_spike_interval_mean
[19] = aenm network_spike_duration_std
[20] = aenm per_burst_interspike_interval
[21] = aenm per_network_spike_spike_number_mean
[22] = aenm per_network_spike_spike_percent

CC1(C)[C@H](C(=O)O[C@H](C#N)c2cccc(Oc3ccccc3)c2)[C@@H]1C=C(Br)Br [Deltamethrin]
Cytotoxicity / cell viability in the BrainSphere resazurin assay (in words) (BrainSpheres): magnitude of the response was not sufficient to indicate a positive response
AC50 (BrainSpheres; resazurin, day 13, Supplement 3 prints it also for curves with hit call 0): 45000 nM
Cytotoxicity hit (BrainSpheres; human): 0
hitc BrainSphere.Cyto (BrainSpheres; resazurin): 0
BMD BrainSphere.Cyto (BrainSpheres): 102 µM
AC50 (2D rat cortical cultures; [1]): 8890 nM
AC50 (2D rat cortical cultures; [2]): 5290 nM
AC50 (2D rat cortical cultures; [3]): 3860 nM
AC50 (2D rat cortical cultures; [4]): 3710 nM
AC50 (2D rat cortical cultures; [5]): 2040 nM
AC50 (2D rat cortical cultures; [6]): 3100 nM
AC50 (2D rat cortical cultures; [7]): 641 nM
AC50 (2D rat cortical cultures; [8]): 3820 nM
AC50 (2D rat cortical cultures; [9]): 853 nM
AC50 (2D rat cortical cultures; [10]): 7540 nM
AC50 (2D rat cortical cultures; [11]): 15000 nM
AC50 (2D rat cortical cultures; [12]): 7160 nM
AC50 (2D rat cortical cultures; [13]): 3960 nM
AC50 (2D rat cortical cultures; [14]): 1800 nM
AC50 (2D rat cortical cultures; [15]): 6400 nM
hitc CCTE_Shafer_MEA_dev_active_electrodes_number (2D rat cortical cultures; aenm active_electrodes_number): 1
hitc CCTE_Shafer_MEA_dev_burst_duration_mean (2D rat cortical cultures; aenm burst_duration_mean): 1
hitc CCTE_Shafer_MEA_dev_burst_rate (2D rat cortical cultures; aenm burst_rate): 1
hitc CCTE_Shafer_MEA_dev_bursting_electrodes_number (2D rat cortical cultures; [16]): 1
hitc CCTE_Shafer_MEA_dev_correlation_coefficient_mean (2D rat cortical cultures; [17]): 1
hitc CCTE_Shafer_MEA_dev_firing_rate_mean (2D rat cortical cultures; aenm firing_rate_mean): 1
hitc CCTE_Shafer_MEA_dev_inter_network_spike_interval_mean (2D rat cortical cultures; [18]): 0
hitc CCTE_Shafer_MEA_dev_interburst_interval_mean (2D rat cortical cultures; aenm interburst_interval_mean): 0
hitc CCTE_Shafer_MEA_dev_mutual_information_norm (2D rat cortical cultures; aenm mutual_information_norm): 1
hitc CCTE_Shafer_MEA_dev_network_spike_duration_std (2D rat cortical cultures; [19]): 1
hitc CCTE_Shafer_MEA_dev_network_spike_number (2D rat cortical cultures; aenm network_spike_number): 1
hitc CCTE_Shafer_MEA_dev_network_spike_peak (2D rat cortical cultures; aenm network_spike_peak): 1
hitc CCTE_Shafer_MEA_dev_per_burst_interspike_interval (2D rat cortical cultures; [20]): 1
hitc CCTE_Shafer_MEA_dev_per_burst_spike_percent (2D rat cortical cultures; aenm per_burst_spike_percent): 1
hitc CCTE_Shafer_MEA_dev_per_network_spike_spike_number_mean (2D rat cortical cultures; [21]): 1
hitc CCTE_Shafer_MEA_dev_per_network_spike_spike_percent (2D rat cortical cultures; [22]): 1
hitc CCTE_Shafer_MEA_dev_spike_duration_mean (2D rat cortical cultures; aenm spike_duration_mean): 1

C/C(=C/C=C/[C@@H](C)C(=O)O)[C@H]1CN[C@H](C(=O)O)[C@H]1CC(=O)O [Domoic acid]
AC50 (BrainSpheres): 5000 nM
Cytotoxicity / cell viability in the BrainSphere resazurin assay (in words) (BrainSpheres; day 13 of exposure): magnitude of the response was not sufficient to indicate a positive response
Cytotoxicity hit (BrainSpheres; resazurin, after 13 days of exposure): 0
hitc BrainSphere.Cyto (BrainSpheres; resazurin): 0
BMD BrainSphere.Cyto (BrainSpheres): 4.5 µM
ACC BrainSphere.Cyto (BrainSpheres; tcplfit2 output ACC, activity cutoff in Supplemental Table 1): 5.4 µM
AC50 (2D rat cortical cultures; [1]): 970 nM
AC50 (2D rat cortical cultures; [2]): 992 nM
AC50 (2D rat cortical cultures; [3]): 131 nM
AC50 (2D rat cortical cultures; [4]): 1280 nM
AC50 (2D rat cortical cultures; [5]): 1560 nM
AC50 (2D rat cortical cultures; [6]): 68 nM
AC50 (2D rat cortical cultures; aenm inter_network_spike_interval_mean, read-out: ac50 CCTE_Shafer_MEA_dev_inter_network_spike_interval_mean): 160 nM
AC50 (2D rat cortical cultures; aenm interburst_interval_mean, read-out: ac50 CCTE_Shafer_MEA_dev_interburst_interval_mean): 32 nM
AC50 (2D rat cortical cultures; [7]): 51 nM
AC50 (2D rat cortical cultures; [8]): 259 nM
AC50 (2D rat cortical cultures; [9]): 22 nM
AC50 (2D rat cortical cultures; [10]): 1830 nM
AC50 (2D rat cortical cultures; [11]): 1330 nM
AC50 (2D rat cortical cultures; [12]): 2060 nM
AC50 (2D rat cortical cultures; [13]): 1050 nM
AC50 (2D rat cortical cultures; [14]): 2340 nM
AC50 (2D rat cortical cultures; [15]): 1120 nM
hitc CCTE_Shafer_MEA_dev_active_electrodes_number (2D rat cortical cultures; aenm active_electrodes_number): 1
hitc CCTE_Shafer_MEA_dev_burst_duration_mean (2D rat cortical cultures; aenm burst_duration_mean): 1
hitc CCTE_Shafer_MEA_dev_burst_rate (2D rat cortical cultures; aenm burst_rate): 1
hitc CCTE_Shafer_MEA_dev_bursting_electrodes_number (2D rat cortical cultures; [16]): 1
hitc CCTE_Shafer_MEA_dev_correlation_coefficient_mean (2D rat cortical cultures; [17]): 1
hitc CCTE_Shafer_MEA_dev_firing_rate_mean (2D rat cortical cultures; aenm firing_rate_mean): 1
hitc CCTE_Shafer_MEA_dev_inter_network_spike_interval_mean (2D rat cortical cultures; [18]): 1
hitc CCTE_Shafer_MEA_dev_interburst_interval_mean (2D rat cortical cultures; aenm interburst_interval_mean): 1
hitc CCTE_Shafer_MEA_dev_mutual_information_norm (2D rat cortical cultures; aenm mutual_information_norm): 1
hitc CCTE_Shafer_MEA_dev_network_spike_duration_std (2D rat cortical cultures; [19]): 1
hitc CCTE_Shafer_MEA_dev_network_spike_number (2D rat cortical cultures; aenm network_spike_number): 1
hitc CCTE_Shafer_MEA_dev_network_spike_peak (2D rat cortical cultures; aenm network_spike_peak): 1
hitc CCTE_Shafer_MEA_dev_per_burst_interspike_interval (2D rat cortical cultures; [20]): 1
hitc CCTE_Shafer_MEA_dev_per_burst_spike_percent (2D rat cortical cultures; aenm per_burst_spike_percent): 1
hitc CCTE_Shafer_MEA_dev_per_network_spike_spike_number_mean (2D rat cortical cultures; [21]): 1
hitc CCTE_Shafer_MEA_dev_per_network_spike_spike_percent (2D rat cortical cultures; [22]): 1
hitc CCTE_Shafer_MEA_dev_spike_duration_mean (2D rat cortical cultures; aenm spike_duration_mean): 1
Bioactivity in the rNFA (in words) (2D rat cortical cultures; ref Brown et al. [2016], Carstens et al. [2022], Frank et al. [2017b], Shafer et al. [2019], ToxCast invitrodb (v4.2)): alter multiple parameters of network formation
